From BindingDB's records for patent US11091471 (Hoffmann-La Roche, 2021)

Molecular target: Gamma-aminobutyric acid receptor subunit gamma-2 / Gamma-aminobutyric acid receptor subunit alpha-5 (Homo sapiens, UniProt P18507+P31644)
Test: Electrophysiology
Description: Electrophysiological experiments were performed on days 3 to 5 after the micro-injection of mRNA. During the experiment the oocytes were constantly superfused by a solution containing (in mM) NaCl 90, KCl 1, HEPES 5, MgCl2 1, CaCl2 1 (pH 7.4). Oocytes were impaled by two glass microelectrodes (resistance: 0.4 MΩ) which were filled with a solution containing KCl 1M+K-acetate 1.5 M and voltage-clamped to −80 mV. The recordings were performed at room temperature using the Roboocyte two-electrode voltage clamp system (Multichannelsystem). After an initial equilibration period of 1.5 min GABA was added for 1.5 min at a concentration evoking approximately 20% of a maximal current response (EC20). After another rest interval of 2.5 min GABA was again added evoking a response of similar amplitude and shape. 0.5 min after the onset of this second GABA application the test compound, at a concentration corresponding to approximatively 30 fold its Ki, was added while GABA was still present. Current traces were recorded at a digitization rate of 10 Hz during and shortly before and after the GABA application.

Sequence of Gamma-aminobutyric acid receptor subunit gamma-2 / Gamma-aminobutyric acid receptor subunit alpha-5 (P18507 40-475 limits assumed): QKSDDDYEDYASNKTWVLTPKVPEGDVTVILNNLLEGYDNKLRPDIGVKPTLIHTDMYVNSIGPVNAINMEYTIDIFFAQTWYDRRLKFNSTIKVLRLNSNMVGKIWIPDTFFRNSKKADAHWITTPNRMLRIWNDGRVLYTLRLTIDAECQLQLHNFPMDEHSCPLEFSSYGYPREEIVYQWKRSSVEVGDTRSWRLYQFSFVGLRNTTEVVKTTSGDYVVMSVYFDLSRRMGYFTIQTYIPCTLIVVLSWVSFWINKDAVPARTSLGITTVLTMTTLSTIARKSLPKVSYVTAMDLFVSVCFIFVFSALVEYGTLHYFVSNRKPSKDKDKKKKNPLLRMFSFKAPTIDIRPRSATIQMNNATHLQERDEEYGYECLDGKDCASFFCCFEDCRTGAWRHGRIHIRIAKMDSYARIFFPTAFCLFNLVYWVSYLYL
Sequence of Gamma-aminobutyric acid receptor subunit gamma-2 / Gamma-aminobutyric acid receptor subunit alpha-5 (P31644 32-462 limits assumed): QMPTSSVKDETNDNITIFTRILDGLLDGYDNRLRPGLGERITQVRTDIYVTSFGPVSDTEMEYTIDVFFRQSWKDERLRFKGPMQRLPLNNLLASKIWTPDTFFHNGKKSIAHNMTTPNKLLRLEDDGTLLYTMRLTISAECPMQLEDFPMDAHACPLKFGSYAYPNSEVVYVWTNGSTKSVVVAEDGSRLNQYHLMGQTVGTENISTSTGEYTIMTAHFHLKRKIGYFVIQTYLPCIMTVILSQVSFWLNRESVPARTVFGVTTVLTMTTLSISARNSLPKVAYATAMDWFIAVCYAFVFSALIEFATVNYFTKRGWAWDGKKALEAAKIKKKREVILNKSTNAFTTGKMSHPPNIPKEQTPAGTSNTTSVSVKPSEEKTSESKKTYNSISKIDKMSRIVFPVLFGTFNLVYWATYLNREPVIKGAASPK

Ki: 9.3 nM
SMILES: Cc1onc(-c2ccc(Cl)nc2)c1COc1ccc(C(=O)N[C@H]2CCOC2)nn1 [US11091471, Example 160]
